Laboratory results reported in PMC7531004, “Discovery of gramicidin A analogues with altered activities by multidimensional screening of a one-bead-one-compound library” (Nature Communications, 2020).
Where a SMILES comes first, the peptide text is derived from it. [ ]: non-standard residue; d: D form. The star is where a group is joined. NHCH2CH2OH = OCCN*; For = O=C*

What was measured:
[1] = H+/Na+ transport assay of bead-derived peptides (one-point); assay type: biochemical; set-up: key: relative activity; mean of two control wells = 1.00; conditions: bead-derived peptide solution, EYPC/EYPG LUVs;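 also: relative to parent gramicidin A activity set to 1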
Method in brief: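 Pyranine (1.0 mM)-loaded LUVs containing egg yolk phosphatidylglycerol were prepared by film hydration, sonication and extrusion, then mixed with diluted bead-derived peptide in 96-well format and vortexed 30 min at room temperature. Fluorescence was normalized between untreated LUVs (0%) and Triton X-100 lysis (100%).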

[2] = system: Streptococcus pyogenes SSI-9; assay: Antibacterial activity assay of bead-derived peptides (three concentrations); assay type: cell-based; set-up: key: +++: inhibition by the 640-fold diluted peptide solution; ++: inhibition by the 160-fold diluted solution; +: inhibition by the 40-fold diluted solution; -: no inhibition; conditions: S. pyogenes, bead-derived peptide solution, three concentrations
Method in brief: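 Library peptide stock applied undiluted, 4-fold and 16-fold diluted in DMSO to S. pyogenes SSI-9 (2 × 10^5 CFU) in cation-adjusted Mueller Hinton broth with 5% laked horse blood. After 18 h at 37 °C, growth judged by visible cell precipitation.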

[3] = cell viability/%
Method in brief: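 P388 cells at 1 × 10^4 cells/mL (final) were exposed to library peptides (stocks diluted 250-fold in RPMI1640/10% FBS) for 92 h at 37 °C, 5% CO2. Viable cells were counted by WST-1/1-methoxy PMS (4 h), absorbance 415 nm, and expressed as cell viability (%).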

Compound | H+/Na+ transport activity normalized against the value of 1 (1.00) [1] | antibacterial activity [2] | viability [3] [%]
CC(C)C[C@@H](NC(=O)[C@H](C)NC(=O)[C@H](NC(=O)[C@H](C)NC(=O)CNC(=O)[C@@H](NC=O)C(C)C)[C@H](C)O)C(=O)N[C@H](C(=O)N[C@H](CC(C)C)C(=O)N[C@@H](Cc1c[nH]c2ccccc12)C(=O)N[C@@H](C(=O)N[C@@H](Cc1c[nH]c2ccccc12)C(=O)N[C@H](CC(C)C)C(=O)N[C@@H](Cc1c[nH]c2ccccc12)C(=O)N[C@H](CC(C)C)C(=O)N[C@@H](Cc1c[nH]c2ccccc12)C(=O)NCCO)[C@H](C)O)C(C)C [compound 131] (For-VGA[dT]A[dL]V[dL]W[dT]W[dL]W[dL]W-NHCH2CH2OH) | 1.10 | - | 100
CC(C)C[C@@H](NC(=O)[C@H](Cc1c[nH]c2ccccc12)NC(=O)[C@H](NC(=O)[C@@H](NC(=O)[C@H](NC(=O)[C@H](C)NC(=O)[C@H](NC(=O)[C@H](C)NC(=O)CNC(=O)[C@@H](NC=O)C(C)C)C(C)C)C(C)C)C(C)C)C(C)C)C(=O)N[C@@H](Cc1c[nH]c2ccccc12)C(=O)N[C@@H](C(=O)N[C@@H](Cc1c[nH]c2ccccc12)C(=O)N[C@@H](C(=O)N[C@@H](Cc1c[nH]c2ccccc12)C(=O)NCCO)C(C)C)C(C)C [compound 169] (For-VGA[dV]A[dV]V[dV]W[dL]W[dV]W[dV]W-NHCH2CH2OH) | 1.04 | ++ | 100
CC(C)C[C@@H](NC(=O)[C@H](C)NC(=O)CNC(=O)[C@@H](NC=O)C(C)C)C(=O)N[C@@H](C)C(=O)N[C@H](CC(C)C)C(=O)N[C@H](C(=O)N[C@H](CC(C)C)C(=O)N[C@@H](Cc1c[nH]c2ccccc12)C(=O)N[C@@H](C(=O)N[C@@H](Cc1c[nH]c2ccccc12)C(=O)N[C@@H](C(=O)N[C@@H](Cc1c[nH]c2ccccc12)C(=O)N[C@H](CC(C)C)C(=O)N[C@@H](Cc1c[nH]c2ccccc12)C(=O)NCCO)C(C)C)[C@H](C)O)C(C)C [compound 196] (For-VGA[dL]A[dL]V[dL]W[dT]W[dV]W[dL]W-NHCH2CH2OH) | 1.06 | - | 100
CC(C)C[C@@H](NC(=O)[C@H](C)NC(=O)CNC(=O)[C@@H](NC=O)C(C)C)C(=O)N[C@@H](C)C(=O)N[C@@H](C(=O)N[C@H](C(=O)N[C@@H](C(=O)N[C@@H](Cc1c[nH]c2ccccc12)C(=O)N[C@H](CC(C)C)C(=O)N[C@@H](Cc1c[nH]c2ccccc12)C(=O)N[C@H](CC(C)C)C(=O)N[C@@H](Cc1c[nH]c2ccccc12)C(=O)N[C@@H](C(=O)N[C@@H](Cc1c[nH]c2ccccc12)C(=O)NCCO)C(C)C)[C@H](C)O)C(C)C)C(C)C [compound 200] (For-VGA[dL]A[dV]V[dT]W[dL]W[dL]W[dV]W-NHCH2CH2OH) | 1.04 | + | 100
CC(C)C[C@@H](NC(=O)[C@H](C)NC(=O)CNC(=O)[C@@H](NC=O)C(C)C)C(=O)N[C@@H](C)C(=O)N[C@@H](C(=O)N[C@H](C(=O)N[C@H](CC(C)C)C(=O)N[C@@H](Cc1c[nH]c2ccccc12)C(=O)N[C@@H](C(=O)N[C@@H](Cc1c[nH]c2ccccc12)C(=O)N[C@@H](C(=O)N[C@@H](Cc1c[nH]c2ccccc12)C(=O)N[C@H](CC(C)C)C(=O)N[C@@H](Cc1c[nH]c2ccccc12)C(=O)NCCO)[C@H](C)O)C(C)C)C(C)C)C(C)C [compound 201] (For-VGA[dL]A[dV]V[dL]W[dV]W[dT]W[dL]W-NHCH2CH2OH) | 1.06 | - | 100
CC(C)C[C@@H](NC(=O)[C@H](C)NC(=O)CNC(=O)[C@@H](NC=O)C(C)C)C(=O)N[C@@H](C)C(=O)N[C@@H](C(=O)N[C@H](C(=O)N[C@@H](C(=O)N[C@@H](Cc1c[nH]c2ccccc12)C(=O)N[C@@H](C(=O)N[C@@H](Cc1c[nH]c2ccccc12)C(=O)N[C@@H](C(=O)N[C@@H](Cc1c[nH]c2ccccc12)C(=O)N[C@H](CC(C)C)C(=O)N[C@@H](Cc1c[nH]c2ccccc12)C(=O)NCCO)C(C)C)C(C)C)[C@H](C)O)C(C)C)C(C)C [compound 285] (For-VGA[dL]A[dV]V[dT]W[dV]W[dV]W[dL]W-NHCH2CH2OH) | 1.08 | - | 100
CNC(=O)C[C@@H](NC(=O)[C@H](Cc1c[nH]c2ccccc12)NC(=O)[C@@H](CC(C)C)NC(=O)[C@H](Cc1c[nH]c2ccccc12)NC(=O)[C@@H](CC(C)C)NC(=O)[C@H](Cc1c[nH]c2ccccc12)NC(=O)[C@@H](CC(C)C)NC(=O)[C@@H](NC(=O)[C@@H](CC(C)C)NC(=O)[C@H](C)NC(=O)[C@@H](CC(C)C)NC(=O)[C@H](C)NC(=O)CNC(=O)[C@@H](NC=O)C(C)C)C(C)C)C(=O)N[C@@H](Cc1c[nH]c2ccccc12)C(=O)NCCO [compound 300] (For-VGA[dL]A[dL]V[dL]W[dL]W[dL]W[dD](NHMe)W-NHCH2CH2OH) | 1.00 | - | 100
CNC(=O)C[C@@H](NC(=O)[C@H](C)NC(=O)[C@@H](CC(C)C)NC(=O)[C@H](C)NC(=O)CNC(=O)[C@@H](NC=O)C(C)C)C(=O)N[C@H](C(=O)N[C@@H](C(=O)N[C@@H](Cc1c[nH]c2ccccc12)C(=O)N[C@H](CC(C)C)C(=O)N[C@@H](Cc1c[nH]c2ccccc12)C(=O)N[C@H](CC(C)C)C(=O)N[C@@H](Cc1c[nH]c2ccccc12)C(=O)N[C@@H](C(=O)N[C@@H](Cc1c[nH]c2ccccc12)C(=O)NCCO)C(C)C)C(C)C)C(C)C [compound 346] (For-VGA[dL]A[dD](NHMe)V[dV]W[dL]W[dL]W[dV]W-NHCH2CH2OH) | 1.12 | - | 100
CNC(=O)C[C@@H](NC(=O)[C@H](Cc1c[nH]c2ccccc12)NC(=O)[C@H](NC(=O)[C@H](Cc1c[nH]c2ccccc12)NC(=O)[C@H](NC(=O)[C@H](Cc1c[nH]c2ccccc12)NC(=O)[C@H](NC(=O)[C@@H](NC(=O)[C@H](NC(=O)[C@H](C)NC(=O)[C@@H](CC(C)C)NC(=O)[C@H](C)NC(=O)CNC(=O)[C@@H](NC=O)C(C)C)C(C)C)C(C)C)C(C)C)C(C)C)C(C)C)C(=O)N[C@@H](Cc1c[nH]c2ccccc12)C(=O)NCCO [compound 362] (For-VGA[dL]A[dV]V[dV]W[dV]W[dV]W[dD](NHMe)W-NHCH2CH2OH) | 1.05 | - | 100
CC(C)C[C@@H](NC(=O)[C@H](C)NC(=O)CNC(=O)[C@@H](NC=O)C(C)C)C(=O)N[C@@H](C)C(=O)N[C@@H](C(=O)N[C@H](C(=O)N[C@H](CC(C)C)C(=O)N[C@@H](Cc1c[nH]c2ccccc12)C(=O)N[C@H](CC(C)C)C(=O)N[C@@H](Cc1c[nH]c2ccccc12)C(=O)N[C@@H](C(=O)N[C@@H](Cc1c[nH]c2ccccc12)C(=O)N[C@@H](C(=O)N[C@@H](Cc1c[nH]c2ccccc12)C(=O)NCCO)C(C)C)[C@H](C)O)C(C)C)[C@H](C)O [compound 381] (For-VGA[dL]A[dT]V[dL]W[dL]W[dT]W[dV]W-NHCH2CH2OH) | 1.03 | - | 100
